{"source": "paper PMC11012721", "about": "(International Journal of Molecular Sciences, 2024)", "key": {"mice [1]": {"test_system": "mice", "experiment": "passive avoidance test, SCOP-induced long-term memory impairment", "type": "in vivo", "protocol": "(§1) The passive avoidance test in mice is used to assess fear-related learning and memory. The apparatus consists of an acrylic box with two chambers: white (10 × 13 × 15 cm) and black (25 × 20 × 15 cm). During the experiment, the white chamber is illuminated with a bright light (8 W). The black chamber, which is equipped with an electric grid base, is connected to the illuminated chamber.\n(§2) A pre-test (training) was carried out before the experiments. Each mouse was placed individually in the illuminated chamber of the device and allowed to explore it within 30 s. The guillotine door separating the two chambers was then opened. The mouse was then allowed to enter the black chamber, where it was immediately treated with an electric shock (0.2 mA) for 2 s. The latency to enter the black chamber was recorded (TL1). During the retention trial, which was performed 24 h after the pre-test, the same mouse was again placed in the lighted chamber of the device. The time required to enter the black chamber was recorded (TL2). In contrast to the pre-test, no foot shock was administered this time. […] The index of latency (IL) was calculated as follows:IL = (TL2 − TL1)/TL1(1)\n(§3) After the 30 min delay, the pre-test was performed."}, "[2]": {"set-up": "method as in Zhang et al. [60]", "settings": "ref Zhang et al. [60]; cited from earlier work"}, "mice [3]": {"test_system": "mice", "experiment": "locomotor activity test (photoresistance actimeters)", "settings": "6, 12.5 or 25 mg/kg ip; 30 min measurement; p > 0.05"}, "AChE": {"test_system": "AChE", "settings": "previous studies; cited from earlier work"}, "[4]": {"experiment": "HPLC-ESI-QTOF-MS/MS determination of astragaloside IV in organs post mortem", "type": "in vivo, mice", "settings": "for content in kidney (Av) / content in liver (Av) / content in spleen (Av) / content in brain (Av): 1 h after injection, n = 3", "protocol": "They were then homogenized in an Eppendorff plastic vial kept in ice. The homogenates of the organs were vortexed with 200 µL of 50% ethanol for 10 min. The Eppendorff vials were centrifuged at 3500 rpm for 5 min and the supernatant was filtered through a nylon syringe filter with a diameter of 0.22 µm into the autosampler vials with the glass inserts. […] Due to the small size and mass of brains, AIV was quantified in these organs after addition of the reference compound (Sigma Aldrich, St. Louis, MO, USA) to the samples. […] The peak areas of astragaloside IV in the brains were compared with the blank solution of the standard compound. The levels of astragaloside IV in the other organs were measured without the presence of the reference compound.\n(§4) The liquid chromatograph consisted of a degasser, a binary pump, a column oven, an autosampler and the high-resolution mass detector QTOF-MS/MS with an electrospray ionization source. The chromatographic column Zorbax Eclipse Plus (Agilent Technologies, CA, USA) (150 mm × 2.1 mm, 3.2 um, RP-18) was used to separate the metabolites of the injected matrix in the following gradient of acetonitrile with 0.1% formic acid (solvent B) in the 0.1% aqueous solution of formic acid (solvent A): 0 min—2% B, 2 min—10% B, 6 min—40% B, 35–37 min—95% B and 37.5 min—2% B. The analysis time was set to 43 min, the follow-up time to 5 min, the flow rate to 0.2 mL/min and the injection volume to 10 μL. The detailed settings of the mass spectrometer were as follows: a capillary voltage of 3000 V, a skimmer voltage of 65 V, a mass range of 100–1200 m/z, a collision energy of 10 and 20 V, a nebulizer pressure of 30 psig, a gas flow rate of 12 L/min and gas and sheath gas temperatures of 250 and 325 °C. The Mass Hunter Workstation (version B.10.00) from Agilent Technologies was used to record and process the data obtained. […] For each of the concentrations, the average values of the content of the tested substance in the respective organ were calculated. The standard deviation (SD) values were calculated in each case. The recorded mass chromatograms for the brain samples (injection with saline: n = 2, injection with LPS: n = 3 and 25 mg/kg b.w. with LPS injection: n = 3) were analyzed with the Mass Profiler Professional Program 15.1 from Agilent Technologies (Santa Clara, CA, USA) with a built-in pathways analysis module that uses the Kyoto Encyclopedia of Genes and Genomes (KEGG) database to detect the effects of the injected substance on molecular mechanisms. First, the raw data from the recorded chromatograms were exported in csv format and analyzed in the program. […] Of the 517 entities analyzed, eleven differentiating m/z signals were detected in the samples, with p < 0.05 and a fold change of 2 settings. One of the differentiating signals was phosphatydylcholine, whose behavior in the tested samples was analyzed with the pathways module."}, "[5]": {"test_system": "phosphatidylcholine PC(22:4(7Z, 10Z, 13Z, 16Z)/16:0) level", "experiment": "phosphatidylcholine level in brain samples, pathway analysis (Mass Profiler Professional, KEGG)", "type": "in vivo, mice", "settings": "for effect on phosphatidylcholine level in brains: LPS model", "protocol": "as §4"}, "mice [6]": {"test_system": "mice", "experiment": "passive avoidance test, LPS-induced long-term memory impairment", "type": "in vivo", "settings": "LPS 2.5 mg/kg ip", "protocol": "as §1, §2, §3"}, "[7]": {"settings": "AIV smaller doses (6, 12.5 mg/kg ip), p > 0.05"}, "[8]": {"settings": "AIV 6, 12.5 or 25 mg/kg ip, p > 0.05 vs LPS"}}}
{"compound": "CC(C)(O)[C@@H]1CC[C@](C)([C@H]2[C@@H](O)C[C@@]3(C)[C@@H]4C[C@H](O[C@@H]5O[C@H](CO)[C@@H](O)[C@H](O)[C@H]5O)[C@H]5C(C)(C)[C@@H](O[C@@H]6OC[C@@H](O)[C@H](O)[C@H]6O)CC[C@@]56C[C@@]46CC[C@]23C)O1", "note": "[AIV, astragaloside IV]", "values": [{"measurement": "attenuation of SCOP-impaired acquisition of long-term memory", "setting": "mice [1]; AIV 25 mg/kg ip before SCOP 1 mg/kg ip, p < 0.001 vs SCOP", "result": "attenuated"}, {"measurement": "attenuation of SCOP-impaired consolidation of long-term memory", "setting": "mice [1]; AIV 25 mg/kg ip, SCOP 1 mg/kg ip, p < 0.01 vs SCOP", "result": "attenuated"}, {"measurement": "attenuation of SCOP-impaired acquisition of long-term memory", "setting": "mice [1]; [7]", "result": "ineffective"}, {"measurement": "attenuation of SCOP-impaired consolidation of long-term memory", "setting": "mice [1]; [7]", "result": "ineffective"}, {"measurement": "effect of AIV itself on acquisition of long-term memory", "setting": "mice [1]; all doses tested (6, 12.5, 25 mg/kg ip), no SCOP, p < 0.001 vs control", "result": "improved acquisition"}, {"measurement": "route of excretion", "setting": "[2]", "result": "excreted slowly via hepatic clearance"}, {"measurement": "effect on locomotor activity", "setting": "mice [3]", "result": "no effect"}, {"measurement": "AChE inhibition", "setting": "AChE", "result": "inhibitor of AChE"}, {"measurement": "content in kidney (Av)", "setting": "[4]; 6 mg/kg ip", "result": 0.0174, "unit": "mg/Organ"}, {"measurement": "content in liver (Av)", "setting": "[4]; 6 mg/kg ip", "result": 0.00411, "unit": "mg/Organ"}, {"measurement": "content in spleen (Av)", "setting": "[4]; 6 mg/kg ip", "result": 0.03766, "unit": "mg/Organ"}, {"measurement": "content in brain (Av)", "setting": "[4]; 12.5 mg/kg ip", "result": 0.00012, "unit": "mg/Organ"}, {"measurement": "content in kidney (Av)", "setting": "[4]; 12.5 mg/kg ip", "result": 0.03882, "unit": "mg/Organ"}, {"measurement": "content in liver (Av)", "setting": "[4]; 12.5 mg/kg ip", "result": 0.01084, "unit": "mg/Organ"}, {"measurement": "content in spleen (Av)", "setting": "[4]; 12.5 mg/kg ip", "result": 0.04919, "unit": "mg/Organ"}, {"measurement": "content in brain (Av)", "setting": "[4]; 25 mg/kg ip", "result": 0.00023, "unit": "mg/Organ"}, {"measurement": "content in kidney (Av)", "setting": "[4]; 25 mg/kg ip", "result": 0.08892, "unit": "mg/Organ"}, {"measurement": "content in liver (Av)", "setting": "[4]; 25 mg/kg ip", "result": 0.02316, "unit": "mg/Organ"}, {"measurement": "content in spleen (Av)", "setting": "[4]; 25 mg/kg ip", "result": 0.06844, "unit": "mg/Organ"}, {"measurement": "dose dependence of concentration in soft organ tissues", "setting": "[4]; 6, 12.5, 25 mg/kg ip", "result": "dose-dependent"}, {"measurement": "rank order of content in soft organs", "setting": "[4]; ip, mice, post mortem", "result": "highest content of the saponin was found in the kidneys, then in the spleen, liver and brain"}, {"measurement": "effect on phosphatidylcholine level in brains", "setting": "[5]; astragaloside IV 25 mg/kg b.w. ip", "result": "restored the level of the compound to that of saline administration"}, {"measurement": "attenuation of LPS-impaired acquisition of long-term memory", "setting": "mice [6]; [8]", "result": "did not attenuate"}, {"measurement": "attenuation of LPS-impaired consolidation of long-term memory", "setting": "mice [6]; [8]", "result": "did not attenuate"}]}
{"compound": "CN1[C@@H]2C[C@@H](OC(=O)[C@H](CO)c3ccccc3)C[C@H]1[C@@H]1O[C@@H]12", "note": "[SCOP, Scopolamine, reference compound]", "values": [{"measurement": "effect on memory acquisition and consolidation vs control mice", "setting": "mice [1]; SCOP 1 mg/kg ip, p < 0.001", "result": "impaired both memory acquisition and consolidation"}]}
{"compound": "lipopolysaccharide [LPS]", "values": [{"measurement": "effect on phosphatidylcholine level in brains", "setting": "[5]", "result": "decrease the level of phosphatidylcholines"}, {"measurement": "Kennedy Pathway log2 (phosphatidylcholine level)", "setting": "[5]; brain samples, LPS group", "result": 0}, {"measurement": "One-Carbon Metabolism log2 (phosphatidylcholine level)", "setting": "[5]; brain samples, LPS group", "result": 0}, {"measurement": "effect on memory acquisition and consolidation vs control mice", "setting": "mice [6]; p < 0.001", "result": "impaired both memory acquisition and consolidation"}]}
